The text below walks through data of US20230295199A1, “PHOSPHOLIPID” (NIPPON FINE CHEMICAL CO., LTD., priority 2021, published 2023).

A short description of series [1]: siRNA encapsulation efficiency of lipid particles (RiboGreen reagent). In kind it is physicochemical. The conditions noted are these: lipid 1:DPPC:Chol 45:10:45, siRNA/lipid molar ratio 1/7000, named phospholipid as lipid 1. The procedure: (§1) siRNA was added to 1 mM citrate buffer (pH 4.0), thereby preparing an acidic aqueous solution of siRNA (25° C., siRNA concentration: 71.4 nM). Separately, lipids (lipid 1: DOP-DEDA, DOP-PPZ, or DOR-MPPZ; lipid 2: dipalmitoyl phosphatidylcholine (DPPC); and lipid 3: cholesterol (Chol)) at a molar ratio of 45:10:45 (lipid 1:lipid 2:lipid 3) were added to ethanol, thereby preparing a phospholipid alcohol solution (25° C., lipid concentration: 2.5 mM). A 5-fold volume of the acidic aqueous solution of siRNA was added to the phospholipid alcohol solution (siRNA/lipid molar ratio=1/7000), and a microchannel (KeyChem-Basic, YMC Co., Ltd.) was used to obtain lipid particles. Finally, ethanol was removed by dialysis.
Further, the encapsulation efficiency of RNA was measured in the following manner. The measurement was performed using an RNA assay reagent (RiboGreen reagent, Thermo Fisher Scientific), specifically as described below. […] The plate was shaken for 5 minutes, and the fluorescence intensity in each well was measured. The encapsulation efficiency of siRNA in the lipid particles was calculated using the following equation: the encapsulation efficiency (%)=(the fluorescence intensity of total siRNA−the fluorescence intensity of free siRNA)/(the fluorescence intensity of total siRNA), with the measured fluorescence intensity.

Series [2] in a line: Particle size and polydispersity index of lipid particles (Zetasizer Nano ZS). It is filed as physicochemical. The conditions noted are these: siRNA lipid particles, lipid 1:DPPC:Chol 45:10:45, named phospholipid as lipid 1; diluted 50-fold with RNase-free water. The procedure:
as §1
The lipid particles were diluted 50-fold with RNase-free water, and then the particle size and polydispersity index (PDI) were measured with a Zetasizer Nano ZS (Malvern). The lipid. particles were also diluted 50-fold with a buffer (pH=4.0, 5.0, 6.0, or 7.0), and the ζ-potential was then measured.

For the molecule `CCCCCCCC/C=C\CCCCCCCC(=O)OC[C@H](COP(=O)(O)OCCN1CCNCC1)OC(=O)CCCCCCC/C=C\CCCCCCCC` [DOP-PPZ, 1,2-di-(9Z-octadecenoyl)-sn-glycero-3-phosphoethylpiperazine], the “siRNA encapsulation efficiency (%)*” value in series [1] is given as 94 ± 4%. In series [2], the “Particle size (nm)” value was found to be 79 ± 3 nm and the Pdl stood at 0.35 ± 0.01.
“Dioleoylphosphate-Diethylenediamine Conjugate [DOP-DEDA, reference compound]”: in series [1], the “siRNA encapsulation efficiency (%)*” value is on record as 98 ± 7%. Moreover, in series [2], the “Particle size (nm)” value stood at 100 ± 3 nm and the Pdl worked out at 0.11 ± 0.06.
